According to patent publication US20120020876A1, “HEDGEHOG PATHWAY INHIBITORS” (priority 2009, published 2012):
“Also recorded” adds a separate entry of the source.

Key:
Assay type in all cases: in vivo, mouse
[1] = system: pancreatic tumors in KPC mice; experiment: Survival study of tumor-bearing KPC mice; conditions: KPC mice enrolled with 5-10 mm tumors
Procedure: vehicles: 20 μL/g 0.85% NaCl+8 μL/g 5% HPBCD;
Compound A: 40 mg/kg Compound A+20 μL/g 0.85% NaCl;
For survival studies, mice were enrolled following the detection of 5-10 mm diameter tumor by ultrasound. Tumors were quantified by 3D ultrasound twice weekly until endpoint.

Gli1 = Gli1 expression in KPC tumors by quantitative real-time PCR; conditions: 40 mg/kg Compound A oral, treated for 4 days, vs control
Procedure: KPC mice harboring pancreatic tumors were treated with 40 mg/kg of Compound A by oral gavage, either singly, once daily for four days or at as part of a survival study. […] Six hours following the final dose, tissue samples were harvested, snap frozen in liquid nitrogen and stored at −80° C. Mice with abdominal ascites were excluded from analysis. Samples were analyzed by LC/MS, as described below.
RNA was isolated from tissues using the RNeasy kit (Qiagen). cDNA was synthesized from 1-2 ug of RNA using the AffinityScript QPCR cDNA Synthesis Kit (Stratagene). cDNA was analyzed by quantitative real-time PCR on a 7900HT Real-Time PCR system using relative quantification (ΔΔct) with the taqman gene expression assays (Applied Biosystems) (Table 7). Experiment was performed on 5 KPC tumors and 7 syngeneic tumors derived from K8484 or K8675 cells.

KPC tumor vasculature = experiment: Mean vascular density and vascular-tumor distance (CD31 immunohistochemistry) in KPC tumors
Procedure: Tissues were fixed in 10% formalin solution for 24 hours and transferred to 70% ethanol. Tissues were paraffin embedded, sectioned and rehydrated. For CD31 IHC, sections were unmasked in 10 mM EDTA, pH 8.0 in a pressure cooker. For all other antibodies, sections were unmasked in 10 mM citric acid in a pressure cooker. Endogenous peroxidases were quenched in 3% H2O2/PBS for 20 minutes. Remaining steps were carried out with Vectastain ABC kits appropriate to the species of primary antibody (Vector Labs, Burlingame, Calif.) with the following modification: blocking serum was supplemented with Protein Blocking Agent (Immunotech/BeckmanCoulter, Fullerton, Calif.) diluted 1:50. Antigens were developed with DAB Peroxidase Substrate (Vector Labs). […]
Tissue sections were probed with anti-CD31 antibodies and counterstained with hematoxylin. Mean vascular density (MVD) was determined as the number of CD31 positive blood vessels per 40× field, over three random fields per tumor. The distance separating intratumoral blood vessels and neoplastic cells was determined for twenty randomly chosen blood vessels per tumor. Each intratumoral blood vessels was photographed at 1000× magnification, and the distance to the four nearest tumor cells was measured and the results averaged.

KPC tumors [2] = experiment: Doxorubicin delivery to treated KPC tumors (doxorubicin fluorescence, laser scanning cytometry); conditions: KPC tumors after 8-12 days of treatment; doxorubicin 20 mg/kg infused
Procedure: To assess the functional vasculature, biotin-conjugated Lycopersicon esculentum lectin (B1175-1 mg, Vector Laboratories) was resuspended in 425 μL PBS and mixed with 75 μL of 1 mg/mL Streptavidin-AlexaFluor 633 (S21375, Molecular Probes) (in sterile PBS). Prior to use, the lectin-avidin mixture was centrifuged 14,000 k on a microfuge for 10 minutes to remove any particulate. Fifteen minutes prior to euthanasia, 100 μl (0.4 mg total) of the conjugated lectin was administered as a slow intravenous infusion over 5 minutes, and the hemodynamics monitored closely to ensure that it was tolerated. […]
Mice were perfused with 4% paraformaldehyde in PBS, pH 7.4, while under terminal anesthesia. […] Doxorubicin fluorescence was determined by quantitative imaging cytometry using the iCys Research Imaging Cytometer (CompuCyte, Cambridge, Mass.) with iNovator software (CompuCyte).
A scanning protocol for quantification was configured with two channels. Nuclear DAPI fluorescence was excited by the 405 nm diode laser and detected in the blue ([…]) channel and doxorubicin fluorescence was excited by the argon […] laser and detected in the orange ([…]) channel. The threshold in the DAPI channel was optimised to selectively contour individual cells allowing fluorescence measurement within the primary and peripheral nuclear contours. […]

[3] = 19F NMR of fluorinated gemcitabine metabolites in tissue; conditions: KPC tumors; 10 days of treatment; vs untreated tumors
Procedure: Mice were treated with indicated regiments for 12 days. […] Tissues were rapidly dissected and snap frozen in liquid nitrogen. Tissue specimens were maintained at −80° C. until subjected to nucleotide extraction. Samples were homogenized in a Qiagen TissueLyser with a 5 mm ball bearing for 2×6 minutes at 25 KHz, in the presence of 4 volumes of ice-cold acetonitrile (μL acetonitrile=4×[…] of tissue). An equal volume of water was added and then the sample was spun at 14,000 rpm for 10 minutes at 4° C. Supernatant was freeze dried, resuspended in 600 μL of D2O and transferred to a 5 mm standard NMR tube (Wilmad) for ^19F NMR analysis on a Bruker 600 MHZ (14.1T) Avance NMR spectrometer using a QNP probe. Acquisition parameters included a 1D pulse sequence of ^19F observation and inverse-gated ^1H decoupling, spectral sweep width of 177 ppm (100000 Hz), 4096 scans and 1.65 sec of repetition time. Total acquisition time for each sample was about 1 hr 55 min. Trichloro-fluoro-methane was used for ^19F NMR chemical shift calibrations. A broad hump observed in the baseline of ^19F NMR spectra was removed by application of Linear-prediction (LP) back projection to the time domain data by using 2000 (number of LP) coefficients and 128 back-prediction points prior to Fourier transformation and phase correction. […]

KPC tumors [4] = experiment: Histology (H&E) of treated KPC tumors; conditions: KPC tumors after 8-12 days of treatment

## CC1=C2C[C@H]3[C@@H](CC[C@@H]4C[C@H](NS(C)(=O)=O)CC[C@@]43C)[C@@H]2CC[C@@]2(C1)O[C@@H]1C[C@H](C)CN[C@H]1[C@H]2C.Cl [Compound A]
[1]
  effect on survival of KPC mice: Neither gemcitabine nor Compound A treatment had an effect on the survival
Gli1
  Gli1 expression: significant decrease; also recorded: significantly lower
KPC tumor vasculature; KPC tumors after 8-12 days of treatment
  mean vascular density (MVD): higher MVD; also recorded: significantly elevated; also recorded: increased MVD
KPC tumor vasculature; KPC tumors, vs control and gemcitabine-treated specimens
  position of intratumoral blood vessels relative to tumor cells: positioned in close proximity to tumor cells
KPC tumors [2]
  doxorubicin delivery to tumor tissue (fluorescence per unit area): evident but more variable; also recorded: increased content
[3]
  concentration of gemcitabine metabolites in KPC tumor tissue: No difference
KPC tumors [4]
  tumor stroma / histological pattern: dramatically altered histological patterns; also recorded: loss of cellular and acellular stroma
